How the values were obtained:
Type in all cases: cell-based
B16-F1 melanocytes = assay: B16 Pigmentation Assay
Description: B16 Pigmentation Assay: Melanogenesis is the process by which melanocytes produce melanin, a naturally produced pigment that imparts color to skin, hair, and eyes. Inhibiting melanogenesis is beneficial to prevent skin darkening and lighten dark spots associated with aging. This bioassay utilizes B16-F1 melanocytes (ATCC), an immortalized mouse melanoma cell line, to analyze the effect of compounds on melanogenesis. The endpoint of this assay is a spectrophotometric measurement of melanin production and cellular viability. B16-F1 melanocytes, can be cultivated in standard DMEM growth medium with 10% fetal bovine serum (Mediatech) at 37° C. in 10% CO2 and then treated with any one of the active ingredients, combination of ingredients, or compositions having said combinations disclosed in the specification for 6 days. Following incubation, melanin secretion was measured by absorbance at 405 nm and cellular viability was quantified.

[1] = system: IL-1α production by Human Epidermal Keratinocytes; assay: IL-1α Assay (ELISA, cell culture supernates)
Description: IL-1α Assay: A quantitative sandwich enzyme immunoassay technique(ELISA) was used to measure IL-1α in cell culture supernates. A monoclonal antibody that is specific for IL-1α was pre-coated onto a microplate. Standards and treatment samples are then pipetted into the wells and any IL-1α present is bound by the immobilized antibody. After washing away any unbound substances, an enzyme-linked polyclonal antibody specific for IL-1α is added to the wells. Following a wash to remove any unbound antibody-enzyme reagent, a substrate solution is added to the wells and color develops in proportion to the amount of IL-1α bound which was secreted in response to the treatment.

[2] = system: TNF-α production by human epidermal keratinocytes; assay: Tumor Necrosis Factor Alpha (TNF-α) Assay (ELISA)
Description: Tumor Necrosis Factor Alpha (TNF-α) Assay: The prototype ligand of the TNF superfamily, TNF-α, is a pleiotropic cytokine that plays a central role in inflammation. Increase in its expression is associated with an up regulation in pro-inflammatory activity. This bioassay can be used to analyze the effect of any one of the active ingredients, combination of ingredients, or compositions having said combinations disclosed in the specification on the production of TNF-α by human epidermal keratinocytes. The endpoint of this assay can be a spectrophotometric measurement that reflects the presence of TNF-α and cellular viability. The assay employs the quantitative sandwich enzyme immunoassay technique whereby a monoclonal antibody specific for TNF-α has been pre-coated onto a microplate. […] Following a wash to remove any unbound antibody-enzyme reagent, a substrate solution can be added to the wells and color develops in proportion to the amount of TNF-α bound in the initial step using a microplate reader for detection at 450 nm. The color development can be stopped and the intensity of the color can be measured. […] Following incubation, cell culture medium can be collected and the amount of TNF-α secretion quantified using a sandwich enzyme linked immuno-sorbant assay (ELISA) from R&D Systems (#DTA00C).

Compound | Inhibits Melanogenesis with Mouse Melanocytes (B16-F1 Assay) (B16-F1 melanocytes) | Inhibit IL-1α Production by Human Epidermal Keratinocytes (% inhibition) [1] [%] | Inhibit TNF-α Production by Human Epidermal Keratinocytes [2] [%]
NC(=O)c1cccnc1 [Niacinamide] | (−28%) | – | –
Acetyl dipeptide-1 Cetyl Ester | – | 97 | 88

From patent publication US11253460B2, “Cosmetic compositions” (Mary Kay Inc., priority 2013, dated 2022)
